According to patent US20250145585A1, “HETEROCYCLIC INHIBITORS OF IGF-1R FOR TREATMENT OF DISEASE” (HORIZON THERAPEUTICS IRELAND DAC, priority 2023, published 2025):

Biological target: T1, IGF-1R (Homo sapiens, UniProt P08069)
T1 construct: expressed in transfected cells
Assay: Example B-2: IGF-1R Assay (PathHunter cell lines, EC80 agonist challenge, chemiluminescent detection)
Format: cell-based
Conditions: PathHunter cells, compound 60 minutes at 37° C., EC80 agonist 3 hours; read-out: IC50, Biological Activity against IGF-1R (Table B2)
Method in brief: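 Read-out is PathHunter chemiluminescence, developed for 1 h at room temperature after a 3 h room-temperature EC80 agonist challenge that followed 60 min compound pre-treatment at 37° C (1% vehicle). IC50 comes from % inhibition normalized to EC80 and vehicle controls.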

T1 sequence (P08069 31-1367): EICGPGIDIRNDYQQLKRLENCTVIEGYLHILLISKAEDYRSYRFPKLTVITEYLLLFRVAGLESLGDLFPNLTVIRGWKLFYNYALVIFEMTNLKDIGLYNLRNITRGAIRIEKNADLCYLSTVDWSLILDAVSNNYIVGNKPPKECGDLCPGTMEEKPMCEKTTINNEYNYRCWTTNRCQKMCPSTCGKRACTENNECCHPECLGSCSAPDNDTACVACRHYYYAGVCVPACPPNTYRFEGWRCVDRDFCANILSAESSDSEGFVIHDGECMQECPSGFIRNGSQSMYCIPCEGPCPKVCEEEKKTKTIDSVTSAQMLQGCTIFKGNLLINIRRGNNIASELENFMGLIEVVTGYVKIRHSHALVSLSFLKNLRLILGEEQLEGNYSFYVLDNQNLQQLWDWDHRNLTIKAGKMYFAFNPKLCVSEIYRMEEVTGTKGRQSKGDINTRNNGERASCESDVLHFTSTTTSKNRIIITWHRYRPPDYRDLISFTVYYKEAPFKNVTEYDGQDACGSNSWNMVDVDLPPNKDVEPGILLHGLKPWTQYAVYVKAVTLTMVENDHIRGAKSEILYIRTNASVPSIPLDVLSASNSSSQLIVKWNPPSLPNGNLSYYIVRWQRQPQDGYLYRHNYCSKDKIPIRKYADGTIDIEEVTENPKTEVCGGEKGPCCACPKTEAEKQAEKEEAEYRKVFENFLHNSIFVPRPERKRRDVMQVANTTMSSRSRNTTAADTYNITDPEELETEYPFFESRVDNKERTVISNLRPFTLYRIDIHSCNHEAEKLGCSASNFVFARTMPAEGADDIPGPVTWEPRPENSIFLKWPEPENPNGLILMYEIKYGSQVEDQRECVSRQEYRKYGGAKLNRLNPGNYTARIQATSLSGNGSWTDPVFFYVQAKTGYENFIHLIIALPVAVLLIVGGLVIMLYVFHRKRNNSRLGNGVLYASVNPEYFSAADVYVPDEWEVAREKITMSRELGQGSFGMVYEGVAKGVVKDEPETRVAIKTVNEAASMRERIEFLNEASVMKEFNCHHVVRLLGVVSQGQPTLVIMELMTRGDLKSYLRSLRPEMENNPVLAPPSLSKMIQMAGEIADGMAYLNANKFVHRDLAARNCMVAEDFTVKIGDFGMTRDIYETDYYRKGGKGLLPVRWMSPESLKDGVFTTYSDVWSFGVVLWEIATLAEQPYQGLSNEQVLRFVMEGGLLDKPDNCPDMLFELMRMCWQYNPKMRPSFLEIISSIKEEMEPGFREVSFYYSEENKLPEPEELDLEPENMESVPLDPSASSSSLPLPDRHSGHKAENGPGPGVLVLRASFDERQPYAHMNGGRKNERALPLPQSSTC

Row | SMILES | IC50
1 | CC1(C)C(=O)N(c2ccc3c(c2)N(S(C)(=O)=O)CC32CCC2)C(=O)N1Cc1ccnc2c1CC(=O)N2 [Compound 43, 5,5-dimethyl-3-(1′-(methylsulfonyl)spiro[cyclobutane-1,3′-indolin]-6′-yl)-1-((2-oxo-2,3-dihydro-1H-pyrrolo[2,3-b]pyridin-4-yl)methyl)imidazolidine-2,4-dione] | ≤ 500 nM
2 | CC1(C)C(=O)N(c2ccc(C3(C(F)(F)F)CC3)cc2)C(=O)N1Cc1ccnc(NC2CS(=O)(=O)C2)c1 [Compound 141, 1-((2-((1,1-dioxidothietan-3-yl)amino)pyridin-4-yl)methyl)-5,5-dimethyl-3-(4-(1-(trifluoromethyl)cyclopropyl)phenyl) imidazolidine-2,4-dione] | 500 to 2000 nM
3 | CC(C)Nc1cc(CN2C(=O)N(c3ccc(C4(C#N)CC4)cc3)C(=O)C2(C)C)ccn1 [Compound 144, 1-(4-(3-((2-(isopropylamino)pyridin-4-yl)methyl)-4,4-dimethyl-2,5-dioxoimidazolidin-1-yl)phenyl)cyclopropane-1-carbonitrile] | 500 to 2000 nM
4 | C[C@H]1COc2c(CN3C(=O)N(c4ccc(C5(C(F)(F)F)CC5)cc4)C(=O)C3(C)C)ccnc2N1 [Compound 26, (S)-5,5-dimethyl-1-((3-methyl-3,4-dihydro-2H-pyrido[3,2-b][1,4]oxazin-8-yl)methyl)-3-(4-(1-(trifluoromethyl)cyclopropyl)phenyl) imidazolidine-2,4-dione] | ≤ 500 nM
5 | CC1(C)COc2cc(N3C(=O)N(Cc4ccnc(NC5CCOCC5)c4)C(C)(C)C3=O)ccc21 [Compound 199, 3-(3,3-dimethyl-2,3-dihydrobenzofuran-6-yl)-5,5-dimethyl-1-((2-((tetrahydro-2H-pyran-4-yl)amino)pyridin-4-yl)methyl)imidazolidine-2,4-dione] | ≤ 500 nM
6 | COC[C@@H](C)Nc1cc(CN2C(=O)N(c3ccc4c(c3)N(S(C)(=O)=O)CC43CCC3)C(=O)C2(C)C)ccn1 [Compound 205, (R)-1-((2-((1-methoxypropan-2-yl)amino)pyridin-4-yl)methyl)-5,5-dimethyl-3-(1′-(methylsulfonyl)spiro[cyclobutane-1,3′-indolin]-6′-yl)imidazolidine-2,4-dione] | ≤ 500 nM
7 | CC1(C)C(=O)N(c2ccc3c(c2)N(S(C)(=O)=O)CC32CCC2)C(=O)N1Cc1ccnc(NCC23CCC(CC2)OC3)c1 [Compound 233, 1-((2-(((2-oxabicyclo[2.2.2]octan-4-yl)methyl)amino)pyridin-4-yl)methyl)-5,5-dimethyl-3-(1′-(methylsulfonyl)spiro[cyclobutane-1,3′-indolin]-6′-yl)imidazolidine-2,4-dione] | ≤ 500 nM
8 | CC1Cc2c(CN3C(=O)N(c4ccc(C5(C(F)(F)F)CC5)cc4)C(=O)C3(C)C)ccnc2N1 (stereo not drawn) [Compound 34, 5,5-dimethyl-1-((2-methyl-2,3-dihydro-1H-pyrrolo[2,3-b]pyridin-4-yl)methyl)-3-(4-(1-(trifluoromethyl)cyclopropyl)phenyl) imidazolidine-2,4-dione] | ≤ 500 nM
9 | CC1C(=O)Nc2nccc(CN3C(=O)N(c4ccc(C5(C(F)(F)F)CC5)cc4)C(=O)C3(C)C)c21 (stereo not drawn) [Compound 31, 5,5-dimethyl-1-((3-methyl-2-oxo-2,3-dihydro-1H-pyrrolo[2,3-b]pyridin-4-yl)methyl)-3-(4-(1-(trifluoromethyl)cyclopropyl)phenyl) imidazolidine-2,4-dione] | ≤ 500 nM
10 | CC1(C)CN(S(C)(=O)=O)c2cc(N3C(=O)N(Cc4ccnc5c4CC(=O)N5)C(C)(C)C3=O)ccc21 [Compound 37, 3-(3,3-dimethyl-1-(methylsulfonyl)indolin-6-yl)-5,5-dimethyl-1-((2-oxo-2,3-dihydro-1H-pyrrolo[2,3-b]pyridin-4-yl)methyl)imidazolidine-2,4-dione] | ≤ 500 nM
11 | COCCS(=O)(=O)N1CC(C)(C)c2ccc(N3C(=O)N(Cc4ccnc(NC5CCOCC5)c4)C(C)(C)C3=O)cc21 [Compound 228, 3-(1-((2-methoxyethyl)sulfonyl)-3,3-dimethylindolin-6-yl)-5,5-dimethyl-1-((2-((tetrahydro-2H-pyran-4-yl)amino)pyridin-4-yl)methyl)imidazolidine-2,4-dione] | ≤ 500 nM
12 | CC1(Nc2cc(CN3C(=O)N(c4ccc(C(C)(C)C#N)cc4)C(=O)C3(C)C)ccn2)CC1 [Compound 155, 2-(4-(4,4-dimethyl-3-((2-((1-methylcyclopropyl)amino)pyridin-4-yl)methyl)-2,5-dioxoimidazolidin-1-yl)phenyl)-2-methylpropanenitrile] | ≤ 500 nM
13 | CC1(C)C(=O)N(c2ccc(C3(C#N)CC3(C)C)cc2)C(=O)N1Cc1ccnc(N[C@H]2[C@@H]3COC[C@@H]32)c1 (stereo partly drawn) [Compound 170, 1-(4-(3-((2-(((1R,5S,6r)-3-oxabicyclo[3.1.0]hexan-6-yl)amino)pyridin-4-yl)methyl)-4,4-dimethyl-2,5-dioxoimidazolidin-1-yl)phenyl)-2,2-dimethylcyclopropane-1-carbonitrile] | ≤ 500 nM
14 | COCCC(C)Nc1cc(CN2C(=O)N(c3ccc4c(c3)N(S(C)(=O)=O)CC4(C)C)C(=O)C2(C)C)ccn1 (stereo not drawn) [Compound 219, 3-(3,3-dimethyl-1-(methylsulfonyl)indolin-6-yl)-1-((2-((4-methoxybutan-2-yl)amino)pyridin-4-yl)methyl)-5,5-dimethylimidazolidine-2,4-dione] | ≤ 500 nM
15 | CC1(C)C(=O)N(c2ccc3c(c2)OCC32CCC2)C(=O)N1Cc1ccnc2c1CC(=O)N2 [Compound 51, 5,5-dimethyl-1-((2-oxo-2,3-dihydro-1H-pyrrolo[2,3-b]pyridin-4-yl)methyl)-3-(2H-spiro[benzofuran-3,1′-cyclobutan]-6-yl)imidazolidine-2,4-dione] | ≤ 500 nM
16 | C[C@H](CC#N)Nc1cc(CN2C(=O)N(c3ccc(C4(C(F)(F)F)CC4)cc3)C(=O)C2(C)C)ccn1 [Compound 147, (R)-3-((4-((5,5-dimethyl-2,4-dioxo-3-(4-(1-(trifluoromethyl)cyclopropyl)phenyl)imidazolidin-1-yl)methyl)pyridin-2-yl)amino)butanenitrile] | ≤ 500 nM
17 | CC1(C)COc2cc(N3C(=O)N(Cc4ccnc(N[C@H]5[C@@H]6COC[C@@H]65)c4)C(C)(C)C3=O)ccc21 [Compound 229, 1-((2-(((1R,5S,6r)-3-oxabicyclo[3.1.0]hexan-6-yl)amino)pyridin-4-yl)methyl)-3-(3,3-dimethyl-2,3-dihydrobenzofuran-6-yl)-5,5-dimethylimidazolidine-2,4-dione] | ≤ 500 nM
18 | COCCC(C)Nc1cc(CN2C(=O)N(c3ccc(C(C)(C)C#N)cc3)C(=O)C2(C)C)ccn1 (stereo not drawn) [Compound 156, 2-(4-(3-((2-((4-methoxybutan-2-yl)amino)pyridin-4-yl)methyl)-4,4-dimethyl-2,5-dioxoimidazolidin-1-yl)phenyl)-2-methylpropanenitrile] | ≤ 500 nM

Second part, the molecule after the results:

Row | IC50 | SMILES
19 | ≤ 500 nM | CN(C)CCOc1cc(N2C(=O)N(Cc3ccnc(N[C@H]4[C@@H]5COC[C@@H]54)c3)C(C)(C)C2=O)ccc1OC(F)(F)F [Compound 282, 1-((2-(((1R,5S,6r)-3-oxabicyclo[3.1.0]hexan-6-yl)amino)pyridin-4-yl)methyl)-3-(3-(2-(dimethylamino)ethoxy)-4-(trifluoromethoxy)phenyl)-5,5-dimethylimidazolidine-2,4-dione]
20 | > 10000 nM | Cn1nc(C(C)(C)C)cc1N1C(=O)N(Cc2ccnc(N[C@H]3CCOC3)c2)C(C)(C)C1=O [Compound 261, (S)-3-(3-(tert-butyl)-1-methyl-1H-pyrazol-5-yl)-5,5-dimethyl-1-((2-((tetrahydrofuran-3-yl)amino)pyridin-4-yl)methyl)imidazolidine-2,4-dione]
21 | ≤ 500 nM | C[C@H](Nc1cc(CN2C(=O)N(c3ccc4c(c3)N(S(C)(=O)=O)CC43CCC3)C(=O)C2(C)C)ccn1)c1cccnc1 [Compound 243, (S)-5,5-dimethyl-3-(1′-(methylsulfonyl)spiro[cyclobutane-1,3′-indolin]-6′-yl)-1-((2-((1-(pyridin-3-yl)ethyl)amino)pyridin-4-yl)methyl)imidazolidine-2,4-dione]
22 | > 10000 nM | CC1(C)C(=O)N(c2ccc(S(C)(=O)=O)cc2)C(=O)N1Cc1ccnc(N[C@H]2[C@@H]3COC[C@@H]32)c1 [Compound 337, 1-((2-(((1R,SS,6r)-3-oxabicyclo[3.1.0]hexan-6-yl)amino)pyridin-4-yl)methyl)-5,5-dimethyl-3-(4-(methylsulfonyl)phenyl) imidazolidine-2,4-dione]
23 | ≤ 500 nM | [2H]C([2H])([2H])Nc1cc(CN2C(=O)N(c3ccc(S(=O)(=O)C(F)(F)F)cc3)C(=O)C2(C)C)ccn1 [Compound 408]
24 | 500 to 2000 nM | CC(CF)Nc1cc(CN2C(=O)N(c3ccc(S(=O)(=O)C(F)(F)F)cc3)C(=O)C2(C)C)ccn1 (stereo not drawn) [Compound 336, 1-((2-((1-fluoropropan-2-yl)amino)pyridin-4-yl)methyl)-5,5-dimethyl-3-(4-((trifluoromethyl)sulfonyl)phenyl) imidazolidine-2,4-dione]
25 | > 10000 nM | CN1CCCC(Nc2cc(CN3C(=O)N(c4ccc(S(=O)(=O)C(F)(F)F)cc4)C(=O)C3(C)C)ccn2)C1=O (stereo not drawn) [Compound 328, 5,5-dimethyl-1-((2-((1-methyl-2-oxopiperidin-3-yl)amino)pyridin-4-yl)methyl)-3-(4-((trifluoromethyl)sulfonyl)phenyl) imidazolidine-2,4-dione]
26 | ≤ 500 nM | CC1(C)CN(C(N)=O)c2cc(N3C(=O)N(Cc4ccnc(N[C@H]5[C@@H]6COC[C@@H]65)c4)C(C)(C)C3=O)ccc21 [Compound 253, 6-(3-((2-(((1R,5S,6r)-3-oxabicyclo[3.1.0]hexan-6-yl)amino)pyridin-4-yl)methyl)-4,4-dimethyl-2,5-dioxoimidazolidin-1-yl)-3,3-dimethylindoline-1-carboxamide]
27 | ≤ 500 nM | CC(C)c1ccc(N2C(=O)N(Cc3ccnc(N[C@H]4[C@@H]5COC[C@@H]54)c3)C(C)(C)C2=O)cc1C#N [Compound 279, 5-(3-((2-(((1R,5S,6r)-3-oxabicyclo[3.1.0]hexan-6-yl)amino)pyridin-4-yl)methyl)-4,4-dimethyl-2,5-dioxoimidazolidin-1-yl)-2-isopropylbenzonitrile]
